Data on 2 compounds can be found in publication PMC9415638, “Discovery of novel thiazolyl-pyrazolines as dual EGFR and VEGFR-2 inhibitors endowed with in vitro antitumor activity towards non-small lung cancer” (Journal of Enzyme Inhibition and Medicinal Chemistry, 2022).

The subject of assay [1] is HCC70 breast cancer cells. The assay is described as follows: Anti-proliferative MTT assay. It counts as cell-based. The following applies: Homo sapiens, 24 h, read-out: % Growth inhibition ± SEM HCC70. The procedure:
(§1) To evaluate the anti-proliferative activity of the synthesised thiazolyl-pyrazoline derivatives (7a–7d, 10a–10d, and 13a–13f), a preliminary in vitro one dose (10 µM) anticancer assay was performed. Nine cell lines derived from five tumour subpanels were examined; leukaemia (K562 and KG-1a), breast (MCF-7, BT-549 and HCC70), lung (A549 and H441), colon (HCT116) and liver (HepG2) cancer cell lines. The compounds were added at a single concentration (10 µM) and the cultures were incubated for 24 h, then the per cent growth inhibition (%GI) was calculated.
(§2) Human leukaemia (K562 and KG-1a), breast (MCF-7, BT-549 and HCC70), lung (A549, H441, NCI-H1650 and NCI-H1975), colon (HCT116), liver (HepG2) cancer cell lines and WI-38 human lung fibroblast cell line were obtained from the American Type Culture Collection (ATCC; Manassas, VA) and were cultured in their suitable media containing 10% foetal bovine serum (FBS; Sigma-Aldrich) in a humidified atmosphere with 5% CO2 at 37 °C. Gefitinib and vandetanib were purchased from Sigma-Aldrich. All chemicals used in this study were analytical or cell-culture grade.
(§3) Cytotoxicity was measured using the MTT assay. Human leukaemia (K562 and KG-1a), breast (MCF-7, BT-549 and HCC70), lung (A549, H441, NCI-H1650 and NCI-H1975), colon (HCT116), liver (HepG2) cancer cell lines and WI-38 human lung fibroblast cell line were plated at a density of 1 × 10^4 cells per well in 96-well plates overnight and then treated with the compounds. After 24 h treatment, 20 μL of MTT solution (2 mg/mL in phosphate-buffered saline [PBS]) was added to each well and the cells were cultured for another 4 h at 37 °C. The medium was aspirated and 150 μL DMSO was added to solubilise MTT formazan crystals. The plates were then shaken, and the optical density was determined at 570 nm using an ELISA plate reader (Model 550, Bio-Rad, Hercules, CA). At least three independent experiments were performed. The IC50 values were calculated using GraphPad Prism 5 (Version 5.01, GraphPad Software, San Diego, CA).
(Tetrazolium dyes change colour on reduction, which living cells bring about.)

A further assay deals with KG-1a leukaemia cells. Kind of assay: Anti-proliferative MTT assay. The following applies: Homo sapiens, 24 h, read-out: % Growth inhibition ± SEM KG-1a. It is filed as cell-based. The procedure:
as §1, §2, §3

The test system of assay [2] is BT-549 breast cancer cells. The assay is described as follows: Anti-proliferative MTT assay. It counts as cell-based. The following applies: Homo sapiens, 24 h, read-out: % Growth inhibition ± SEM BT-549. The procedure:
as §1, §2, §3

The test system of assay [3] is HCT116 colon cancer cells. Kind of assay: Anti-proliferative MTT assay. It is filed as cell-based. The following applies: Homo sapiens, HCT-116, 24 h, read-out: % Growth inhibition ± SEM HCT116. The protocol: as §1, §2, §3
In another assay the test system is HepG2 liver cancer cells. Kind of assay: Anti-proliferative MTT assay. It counts as cell-based. The following applies: Homo sapiens, 24 h, read-out: % Growth inhibition ± SEM HepG2. The procedure: as §1, §2, §3
Assay [4] concerns MCF-7 breast cancer cells. The assay is described as follows: Anti-proliferative MTT assay. The following applies: Homo sapiens, MCF7, 24 h, read-out: % Growth inhibition ± SEM MCF-7. It counts as cell-based. The protocol:
as §1, §2, §3

Another assay deals with K562 leukaemia cells. The assay is described as follows: Anti-proliferative MTT assay. It counts as cell-based. The following applies: Homo sapiens, 24 h, read-out: % Growth inhibition ± SEM K562. The protocol:
as §1, §2, §3

Another assay addresses PKC. The assay is described as follows: Kinase selectivity profiling, Z'-LYTE FRET. The following applies: read-out: IC50 (nM) PKC.
A further assay deals with H441 lung cancer cells. The assay is described as follows: Anti-proliferative MTT assay. The following applies: Homo sapiens, NCI-H441, 24 h; for inhibition at 10 µM: read-out: % Growth inhibition ± SEM H441; for IC50: read-out: IC50 (µM) ± SEM H441, MTT, 24 h, n = 3.
A further assay addresses AKT1 (Homo sapiens, UniProt P31749). The assay is described as follows: Kinase selectivity profiling, Z'-LYTE FRET.
The test system of a further assay is A549 cells. The assay is described as follows: Cell cycle analysis by flow cytometry (7AAD). It is filed as cell-based, human. The following applies: A549, 24 h; untreated controls 6.06% and 5.93%. The procedure:
Figure 6. […] (A) Representative cell cycle distribution data are shown by flow cytometric analysis upon incubation with 0 (control), 2.5 or 5 μM of 10b or 10d or with 0 (control), 5 or 20 μM of gefitinib for 24 h. (B) Quantification of cell cycle distribution upon 24 h incubation with 10b or 10d.
DNA content was measured using 7-aminoactinmycin D (7AAD) (Biotium, Inc., Hayward, CA) staining and is commonly used for cell cycle phase analysis as previously described. Apoptosis was evaluated using the annexin V/propidium iodide (PI) staining kit (BioLegend, San Diego, CA) according to the manufacturer’s instructions and as previously described.
(In flow cytometry, cells or beads pass a laser one at a time.)

In another assay the target is ROCK1 (Homo sapiens, UniProt Q13464). The assay is described as follows: Kinase selectivity profiling, Z'-LYTE FRET.
ROCK1, sequence (Q13464 whole entry): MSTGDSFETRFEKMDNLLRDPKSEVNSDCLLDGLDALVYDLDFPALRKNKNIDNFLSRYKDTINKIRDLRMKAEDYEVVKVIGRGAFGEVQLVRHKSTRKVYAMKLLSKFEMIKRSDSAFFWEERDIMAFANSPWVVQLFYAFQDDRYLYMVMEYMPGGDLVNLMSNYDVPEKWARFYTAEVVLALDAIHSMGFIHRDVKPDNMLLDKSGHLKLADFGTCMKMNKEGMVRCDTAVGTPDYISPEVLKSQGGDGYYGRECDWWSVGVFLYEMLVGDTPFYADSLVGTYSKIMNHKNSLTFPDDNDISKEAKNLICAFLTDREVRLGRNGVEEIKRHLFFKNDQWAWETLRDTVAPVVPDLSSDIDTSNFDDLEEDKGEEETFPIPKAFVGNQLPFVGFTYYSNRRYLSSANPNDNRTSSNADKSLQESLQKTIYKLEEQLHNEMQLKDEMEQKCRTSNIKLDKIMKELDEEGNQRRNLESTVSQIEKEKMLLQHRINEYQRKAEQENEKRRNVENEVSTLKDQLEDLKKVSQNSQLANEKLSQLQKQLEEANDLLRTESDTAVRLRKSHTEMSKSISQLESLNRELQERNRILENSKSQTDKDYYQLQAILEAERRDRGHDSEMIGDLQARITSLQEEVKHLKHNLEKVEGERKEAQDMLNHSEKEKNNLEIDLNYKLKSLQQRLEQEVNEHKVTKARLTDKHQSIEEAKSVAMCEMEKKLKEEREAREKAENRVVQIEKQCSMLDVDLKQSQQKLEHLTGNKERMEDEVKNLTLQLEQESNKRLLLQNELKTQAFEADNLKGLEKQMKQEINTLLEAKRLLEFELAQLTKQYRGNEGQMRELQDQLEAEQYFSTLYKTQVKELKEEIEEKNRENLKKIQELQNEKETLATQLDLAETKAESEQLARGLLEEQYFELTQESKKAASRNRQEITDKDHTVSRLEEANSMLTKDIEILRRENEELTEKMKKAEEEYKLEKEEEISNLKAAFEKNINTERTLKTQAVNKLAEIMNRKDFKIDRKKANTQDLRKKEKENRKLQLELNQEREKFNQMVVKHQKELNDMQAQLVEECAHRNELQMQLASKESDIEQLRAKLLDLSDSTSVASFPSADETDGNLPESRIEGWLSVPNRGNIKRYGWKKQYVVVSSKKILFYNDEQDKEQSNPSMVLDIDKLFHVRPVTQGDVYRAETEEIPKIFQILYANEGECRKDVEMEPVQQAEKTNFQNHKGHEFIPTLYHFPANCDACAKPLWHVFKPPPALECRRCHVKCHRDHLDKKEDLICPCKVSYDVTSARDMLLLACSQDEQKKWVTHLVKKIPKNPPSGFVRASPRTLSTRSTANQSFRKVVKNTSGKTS
For the next assay, the target named is CDK5 (Homo sapiens, UniProt Q00535). The assay is described as follows: Kinase selectivity profiling, Z'-LYTE FRET.
CDK5, sequence (Q00535 whole entry): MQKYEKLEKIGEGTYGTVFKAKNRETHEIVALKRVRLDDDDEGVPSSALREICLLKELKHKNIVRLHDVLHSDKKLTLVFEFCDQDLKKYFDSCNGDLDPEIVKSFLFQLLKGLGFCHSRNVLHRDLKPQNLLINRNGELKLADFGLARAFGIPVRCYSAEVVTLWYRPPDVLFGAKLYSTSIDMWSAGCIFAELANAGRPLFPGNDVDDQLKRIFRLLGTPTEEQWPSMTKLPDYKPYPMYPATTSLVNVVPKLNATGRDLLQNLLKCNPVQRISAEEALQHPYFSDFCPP
CDK5, sequence (Q15078 whole entry partner): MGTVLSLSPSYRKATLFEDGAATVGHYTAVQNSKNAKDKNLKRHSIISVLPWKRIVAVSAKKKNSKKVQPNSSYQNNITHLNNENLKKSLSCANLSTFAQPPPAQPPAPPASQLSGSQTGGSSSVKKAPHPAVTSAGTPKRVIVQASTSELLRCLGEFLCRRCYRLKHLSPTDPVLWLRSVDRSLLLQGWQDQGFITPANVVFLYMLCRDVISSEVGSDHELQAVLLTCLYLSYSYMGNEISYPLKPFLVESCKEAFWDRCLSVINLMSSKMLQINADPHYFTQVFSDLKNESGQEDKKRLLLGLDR
Assay [5] has as its system WI-38 human lung fibroblast cells. The assay is described as follows: MTT cytotoxicity assay on normal cells. The following applies: for IC50: Homo sapiens, WI-38, normal lung fibroblasts, MTT, 24 h, n = 3, read-out: IC50 (µM) ± SEM WI-38; for Mean tumour selectivity: S. I. (WI-38/A549 and H441). It is filed as cell-based. The protocol:
All chemicals used in this study were analytical or cell-culture grade.
Cytotoxicity was measured using the MTT assay. […] The medium was aspirated and 150 μL DMSO was added to solubilise MTT formazan crystals. The plates were then shaken, and the optical density was determined at 570 nm using an ELISA plate reader (Model 550, Bio-Rad, Hercules, CA). At least three independent experiments were performed.

The target of another assay is LCK (Homo sapiens, UniProt P06239). Kind of assay: Kinase selectivity profiling, Z'-LYTE FRET.
LCK, sequence (P06239 whole entry): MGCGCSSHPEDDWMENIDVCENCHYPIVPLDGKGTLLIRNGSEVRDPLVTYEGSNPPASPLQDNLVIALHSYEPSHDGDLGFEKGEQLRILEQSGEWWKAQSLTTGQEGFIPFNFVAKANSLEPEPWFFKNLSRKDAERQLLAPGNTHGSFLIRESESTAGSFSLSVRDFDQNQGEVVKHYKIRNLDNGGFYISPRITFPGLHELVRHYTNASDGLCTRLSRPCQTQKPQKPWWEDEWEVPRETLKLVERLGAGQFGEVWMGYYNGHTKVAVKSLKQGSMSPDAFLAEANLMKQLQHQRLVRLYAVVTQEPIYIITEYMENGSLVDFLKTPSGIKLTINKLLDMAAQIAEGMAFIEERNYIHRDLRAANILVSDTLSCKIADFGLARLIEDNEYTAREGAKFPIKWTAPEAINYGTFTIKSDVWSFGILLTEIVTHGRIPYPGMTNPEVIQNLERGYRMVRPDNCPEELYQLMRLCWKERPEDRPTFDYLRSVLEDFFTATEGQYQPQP
The next assay relates to A549 lung cancer cells. The assay is described as follows: Anti-proliferative MTT assay. The following applies: Homo sapiens, A549, 24 h; for inhibition at 10 µM: read-out: % Growth inhibition ± SEM A549; for IC50: read-out: IC50 (µM) ± SEM A549.
A further assay addresses ABL1 (Homo sapiens, UniProt P00519). The assay is described as follows: Kinase selectivity profiling, Z'-LYTE FRET.
In the next assay the target is EPHB2 (Homo sapiens, UniProt P29323). The assay is described as follows: Kinase selectivity profiling, Z'-LYTE FRET.

The inhibition is the drop in the measured response relative to a control, in per cent. The term IC50 denotes the concentration at which inhibition is half-maximal.

AKT1, sequence (P31749 whole entry): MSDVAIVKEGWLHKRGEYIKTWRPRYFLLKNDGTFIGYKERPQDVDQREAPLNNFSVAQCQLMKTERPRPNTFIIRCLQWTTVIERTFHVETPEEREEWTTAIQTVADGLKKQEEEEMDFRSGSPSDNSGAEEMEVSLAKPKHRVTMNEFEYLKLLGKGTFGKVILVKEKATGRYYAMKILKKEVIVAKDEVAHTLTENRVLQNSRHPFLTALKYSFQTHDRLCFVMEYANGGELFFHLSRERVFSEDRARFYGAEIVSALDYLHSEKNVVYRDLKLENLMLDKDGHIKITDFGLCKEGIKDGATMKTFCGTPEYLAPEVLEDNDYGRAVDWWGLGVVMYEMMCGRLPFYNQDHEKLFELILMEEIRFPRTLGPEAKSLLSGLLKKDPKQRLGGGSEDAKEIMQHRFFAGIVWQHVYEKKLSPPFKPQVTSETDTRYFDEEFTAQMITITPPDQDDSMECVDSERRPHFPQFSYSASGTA
ABL1, sequence (P00519 whole entry): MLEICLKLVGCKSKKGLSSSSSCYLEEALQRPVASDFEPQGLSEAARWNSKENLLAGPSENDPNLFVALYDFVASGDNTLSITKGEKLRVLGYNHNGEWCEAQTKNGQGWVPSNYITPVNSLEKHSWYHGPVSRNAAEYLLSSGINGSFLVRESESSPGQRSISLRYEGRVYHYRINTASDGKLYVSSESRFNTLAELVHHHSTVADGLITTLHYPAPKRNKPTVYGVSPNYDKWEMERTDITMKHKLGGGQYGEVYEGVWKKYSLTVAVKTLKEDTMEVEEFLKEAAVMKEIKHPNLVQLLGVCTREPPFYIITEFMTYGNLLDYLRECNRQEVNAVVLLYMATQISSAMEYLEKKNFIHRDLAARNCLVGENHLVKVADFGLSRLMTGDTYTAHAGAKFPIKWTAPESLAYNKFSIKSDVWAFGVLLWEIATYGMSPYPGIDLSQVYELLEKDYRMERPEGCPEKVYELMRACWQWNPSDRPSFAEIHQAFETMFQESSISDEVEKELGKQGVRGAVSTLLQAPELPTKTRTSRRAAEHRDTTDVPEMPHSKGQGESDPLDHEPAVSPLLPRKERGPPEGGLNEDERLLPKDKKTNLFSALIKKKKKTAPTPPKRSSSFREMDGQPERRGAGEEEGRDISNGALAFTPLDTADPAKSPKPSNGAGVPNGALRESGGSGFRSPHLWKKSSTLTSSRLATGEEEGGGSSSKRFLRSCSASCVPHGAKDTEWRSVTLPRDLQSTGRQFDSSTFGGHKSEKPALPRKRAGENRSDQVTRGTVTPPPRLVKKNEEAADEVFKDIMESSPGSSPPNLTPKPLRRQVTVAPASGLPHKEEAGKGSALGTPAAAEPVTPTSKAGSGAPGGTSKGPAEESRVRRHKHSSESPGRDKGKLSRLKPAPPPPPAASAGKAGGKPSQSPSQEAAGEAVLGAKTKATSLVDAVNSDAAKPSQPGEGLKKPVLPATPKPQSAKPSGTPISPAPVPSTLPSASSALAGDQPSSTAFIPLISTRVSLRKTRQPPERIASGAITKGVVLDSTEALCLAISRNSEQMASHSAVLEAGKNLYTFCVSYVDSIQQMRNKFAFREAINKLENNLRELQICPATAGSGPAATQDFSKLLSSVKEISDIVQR

With `CCOC(=O)c1sc(N2N=C(c3ccc(Cl)cc3Cl)CC2c2ccc(OC)cc2)nc1C` (stereo not drawn) [Compound 10b, Ethyl-2-(3-(2,4-dichlorophenyl)-5-(4-methoxyphenyl)-4,5-dihydro-1H-pyrazol-1-yl)-4-methylthiazole-5-carboxylate], the inhibition at 10 µM was 41.5 ± 2.1% in [1]; 31 ± 2.5% in the assay with KG-1a leukaemia cells; 47.2 ± 4.9% in [2]; 37.7 ± 3.9% in assay [3]; 50.6 ± 2.2% in the assay on HepG2 liver cancer cells; 48.5 ± 2.3% in assay [4]. Also, the figures for the inhibition at 10 µM in the assay with K562 leukaemia cells, in the assay with H441 lung cancer cells and in the assay with A549 lung cancer cells were 54.2 ± 3.8%, 79.1 ± 2.6% and 88.3 ± 4.9%, respectively. Also, the concentration for half-maximal inhibition (IC50) on PKC is over 2000 nM; with H441 lung cancer cells, 4.8 ± 0.1 µM; against AKT1 it was 816 ± 38 nM; against ROCK1, over 2000 nM; against CDK5 it was 1140 ± 20 nM; in assay [5], 72.4 ± 7.2 µM. Also, the IC50 was over 2000 nM at LCK, 4.2 ± 0.8 µM in the assay on A549 lung cancer cells, over 2000 nM at ABL1 and over 2000 nM on EPHB2. For the same compound, the “cells at G2/M phase” value in the assay on A549 cells is listed as 29.2%. The same compound showed a Mean tumour selectivity in assay [5] of 16.1.
Turning to `COc1ccc(C2CC(c3ccc(Cl)cc3Cl)=NN2c2nc(C)c(C(=O)Nc3ccccc3)s2)cc1OC` (stereo not drawn) [Compound 10d, 2-(3-(2,4-Dichlorophenyl)-5-(3,4-dimethoxyphenyl)-4,5-dihydro-1H-pyrazol-1-yl)-4-methyl-N-phenylthiazole-5-carboxamide], the inhibition at 10 µM in assay [1] amounted to 54.1 ± 2.8%; with KG-1a leukaemia cells, 57.2 ± 3.4%; in assay [2], 40.1 ± 2%; in [3], 56.5 ± 2%; in the assay on HepG2 liver cancer cells, 65.5 ± 3.9%; in assay [4], 60.9 ± 4.3%. The inhibition at 10 µM in the assay on K562 leukaemia cells was 60.2 ± 2.3%; in the assay on H441 lung cancer cells it was 89.2 ± 3.9%; in the assay with A549 lung cancer cells, 95.3 ± 5.3%. Moreover, the IC50 on PKC is over 2000 nM; in the assay with H441 lung cancer cells, 3.8 ± 0.5 µM; against AKT1 it was 702 ± 24 nM; on ROCK1 it was over 2000 nM; against CDK5, 993 ± 15 nM; in assay [5] it was 51.4 ± 3.5 µM. The concentration for half-maximal inhibition (IC50) on LCK is over 2000 nM; with A549 lung cancer cells, 2.9 ± 0.2 µM; against ABL1, over 2000 nM; at EPHB2, over 2000 nM. Also, the “cells at G2/M phase” value in the assay with A549 cells was 33.92%. This compound came in with a Mean tumour selectivity in assay [5] of 15.3.
